Measurements as given in patent US20050107430A1, “Antimicrobial and antiviral compounds” (priority 2003, published 2005).
pIC50: −log10 of the molar value. In brackets after ≈: the same amount, converted by molar mass. Like-named read-outs stand apart in the source and are kept apart here.

Legend:
[1] = tested on: MRSA (oxacillin/methicillin resistant S. aureus); experiment: NCCLS MIC/MBC microdilution, MRSA; conditions: for MIC, MRSA (methicillin resistant): Table 3, 24 h and 48 h same results; for MBC: read at 48 hr, 10^−3 kill
Procedure: (§2) Standard NCCLS (e.g., National Committee for Clinical Laboratory Standards) methods for determining MIC (e.g., minimum inhibitory concentration) and MBC (e.g., minimum bactericidal concentration) were used. 96 well micro-well plates were placed in a humid chamber and frozen at −70° C. [BBL Mueller Hinton Broth]. Drugs (e.g., antimicrobial compounds of the present invention) were added to a series of wells through 2 fold serial dilutions. 100 μl of a 2×10^−3 M solution of the respective Tx compounds was added to the first well in a series. 100 μl of the inoculum (e.g., microorganism) was added to the well. […] For example, the concentration in well 8 would be less than the concentration of the same drug in well 7. Inoculum (e.g., microorganism) that was added to the wells was prepared from 24 hour growth of an isolate on 5% sheep blood/Columbia agar plates. 5 to 10 representative colonies were then picked from the plates and added to saline and adjusted to 0.5 McFarland turbidity. Next the sample was diluted 1:100 in saline, such that 100 μl of the diluted sample contained approximately 1×10^5 microbes. 100 μl of the diluted sample was added to each well in a series of drug concentrations. Once the cells were added to the wells, the well plates were incubated at 35° C. without CO2 for 48 hrs and at this time the minimum bactericidal concentration was determined.
(§3) The MIC of Tx-118, Tx-147, and Tx-197 for certain Staphylococcus aureus (MRSA), Pseudomonas aeruginosa, Stenotrophomonas maltophilia, and VRE Enterococcus faecalis was determined using standard NCCLS methods. The first well in each series of decreasing drug concentrations contained 1×10^−4 M of a drug. The drug was diluted by serial two fold dilutions through all 12 wells in a series. There was a final DMSO concentration of 2% in the first well and 1% in the second well, etc. Tests with Tx-118 and Tx-197 were performed in triplicate, and tests with Tx-147 were performed in duplicate.

Enterococcus faecium = experiment: NCCLS MIC/MBC microdilution, Enterococcus (vancomycin sensitive); format: cell-based; conditions: for MBC: read at 48 hr
Text: (§1) [BBL Mueller Hinton Broth].

P. aeruginosa = experiment: NCCLS MIC/MBC microdilution, P. aeruginosa; parameters: MIC: key to the marks not given beside the values; conditions: for MIC, P. aeruginosa: Table 3, P. aeroginosa is L13 from Table 2
[2] = tested on: chloroquin (CQ) resistant strain of Plasmodium falciparum (Pf); experiment: In vitro efficacy against chloroquin resistant Plasmodium falciparum; format: cell-based
Procedure: Tx-5 and Tx-84 were tested for in vitro efficacy against a chloroquin (CQ) resistant strain of Plasmodium falciparum (Pf). The tests were performed in triplicate at a wide variety of concentrations and evaluated for effect compared with CQ.

E. coli ATCC 25922 = experiment: NCCLS MIC/MBC microdilution, E. coli; format: cell-based; conditions: plate EC
Text: as §1

[3] = tested on: Vancomycin resistant S. aureus ATCC700699 and 700788 (VRSA); experiment: NCCLS MIC/MBC microdilution, vancomycin resistant S. aureus; format: cell-based, Staphylococcus aureus; conditions: for MIC, VRSA (ATCC 700699) / MIC, VRSA (ATCC 700788): Table 3, 24 h and 48 h same results; for MBC: read at 48 hr
Text: as §1

[4] = tested on: Mycobacterium tuberculosis; conditions: Table 3
S. aureus = experiment: NCCLS MIC/MBC microdilution, S. aureus patient isolates; format: cell-based, Staphylococcus aureus; conditions: for MBC: read at 48 hr
Text: as §1

[5] = tested on: Stenotrophomonas maltophilia; experiment: NCCLS MIC/MBC microdilution, S. maltophilia; conditions: for MIC, Stenotrophomonas maltophilia: Table 3, 24 h and 48 h same results; for MBC: read at 48 hr, 10^−3 kill
Procedure: as §2, §3

human fibroblasts = experiment: Toxicity study with human fibroblasts; format: cell-based
Candida albicans = experiment: MIC, Candida albicans; format: cell-based
[6] = tested on: VRE (Vancomycin resistant Enterococci); experiment: NCCLS MIC/MBC microdilution, VRE; conditions: for MIC, VRE enterococcus (E. faecalis): Table 3, 24 h and 48 h same results; for MIC: plate D4, VRE patient isolate
Procedure: as §2, §3

Mycobacterium chelonae = experiment: MIC, Mycobacterium chelonae; format: cell-based; conditions: Table 3
Fusarium = experiment: MIC, Fusarium; format: cell-based; conditions: Table 3
Aspergillus fumigatus = experiment: MIC, Aspergillus fumigatus; format: cell-based; conditions: Table 3
[7] = plate K12, MRSA patient isolate
[8] = plate E348, Enterococcus faecium patient isolate
[9] = plate E502, Enterococcus faecium ATCC 502806
[10] = plate E523, Enterococcus facium patient isolate
[11] = plate 37, P. aeruginosa sensitive isolate
[12] = plate ATCC, P. aeruginosa ATCC 27853
[13] = plate L13, P. aeruginosaR (multi-resistant)
[14] = plate 699, VancoR S. aureus ATCC700699
[15] = plate 788, VancoR S. aureus ATCC 700788
[16] = plate S332, S aureus patient isolate
[17] = plate S520, S aureus patient isolate penicillin resistant
[18] = plate C3, S. maltophilia patient isolate
[19] = plate I10, S. maltophilia patient isolate
[20] = plate J11, S. maltophilia patient isolate

c1ccc2c(c1)ccc1c3ccc(NCCCCN4CCCCC4)cc3ccc21 [Tx-5, N-(2′-chrysenyl)-4-(1′-piperidinyl)-butane-1,4-diamine]
MIC, MRSA (methicillin resistant) [1]: 1.5 to 3 µg/mL | bactericidal activity against Staphylococcus aureus (MRSA) ([1]; in words, Example 1): bactericidal activity | MIC ([1]; plate A1, MRSA patient isolate): 3/3 ug/ml | MBC ([1]; plate A1, MRSA): 3/3 ug/ml | MIC ([1]; plate B2, MRSA patient isolate): 1.5 µg/mL (≈ 3.92 µM) | MIC ([1]; plate E5, MRSA patient isolate): 1.5 µg/mL (≈ 3.92 µM) | MIC ([1]; plate F6, MRSA patient isolate): 1.5/1.5 ug/ml | MBC ([1]; plate F6, MRSA): 1.5/1.5 ug/ml | MIC ([1]; plate G7, MRSA patient isolate): 1.5 µg/mL (≈ 3.92 µM) | MIC ([1]; plate H9, MRSA patient isolate): 3/3 ug/ml | MBC ([1]; plate H9, MRSA): 3/3 ug/ml | MIC [1, 7]: 3 µg/mL (≈ 7.84 µM) | MIC (Enterococcus faecium; [8]): 1.5 µg/mL (≈ 3.92 µM) | MBC (Enterococcus faecium; [8]): 3 µg/mL (≈ 7.84 µM) | MIC (Enterococcus faecium; [9]): 1.5 µg/mL (≈ 3.92 µM) | MBC (Enterococcus faecium; [9]): 6 µg/mL (≈ 15.7 µM) | MIC (Enterococcus faecium; [10]): 1.5/1.5 ug/ml | MBC (Enterococcus faecium; [10]): 1.5/1.5 ug/ml | MIC, P. aeruginosa (P. aeruginosa): No activity | MIC (P. aeruginosa; [11]): +++ | MIC (P. aeruginosa; [12]): +++ | MIC (P. aeruginosa; [13]): +++ | pIC50 ([2]; CQ resistant P. falciparum, in vitro, triplicate): 3.81 | inhibitory effect against Pf ([2]; in words): weak effect | MIC (E. coli ATCC 25922): 48/48 ug/ml | MBC (E. coli ATCC 25922; read at 48 hr, 10^−3 kill): 48/48 ug/ml | animal studies (ip), mortality (BDF1′ mice; 35 mg/kg ip): mg/kg (<10% mort) | MIC, VRSA (ATCC 700699) [3]: 1.5 µg/mL (≈ 3.92 µM) | MIC, VRSA (ATCC 700788) [3]: 3.0 µg/mL (≈ 7.84 µM) | MIC [3, 14]: 1.5 µg/mL (≈ 3.92 µM) | MBC [3, 14]: 12 µg/mL (≈ 31.4 µM) | MIC [3, 15]: 3 µg/mL (≈ 7.84 µM) | MBC [3, 15]: 12 µg/mL (≈ 31.4 µM) | MIC, Mycobacterium tuberculosis [4]: 7 µg/mL (≈ 18.3 µM) | MIC (S. aureus; [16]): 0.4 µg/mL (≈ 1.05 µM) | MBC (S. aureus; [16]): 0.7 µg/mL (≈ 1.83 µM) | MIC (S. aureus; [17]): 1.5/1.5 ug/ml | MBC (S. aureus; plate S520, S aureus patient isolate): 1.5/1.5 ug/ml | MIC, Stenotrophomonas maltophilia [5]: 24 to 48 µg/mL | bactericidal activity against Stenotrophomonas maltophilia ([5]; in words, Example 1): some bactericidal activity | MIC [5, 18]: 48/48 ug/ml | MBC ([5]; plate C3, S. maltophilia): 48/48 ug/ml | MIC [5, 19]: 24/24 ug/ml | MBC ([5]; plate I10, S. maltophilia): 24/24 ug/ml | MIC [5, 20]: 48/48 ug/ml | MBC ([5]; plate J11, S. maltophilia): 48/48 ug/ml | Toxicity/human fibroblasts (IC50) (human fibroblasts): 6 µg/mL | inhib. of Candida albicans (Candida albicans; @ 15 ug/ml): (90% inhib. @ 15 ug/ml) | MIC, Candida albicans (Candida albicans; Table 3): 30 µg/mL (≈ 78.4 µM) | MIC, VRE enterococcus (E. faecalis) [6]: 3 µg/mL (≈ 7.84 µM) | MIC [6]: 3 µg/mL (≈ 7.84 µM) | MIC, Mycobacterium chelonae (Mycobacterium chelonae): 5 to 24 µg/mL

c1ccc2c3c(ccc2c1)-c1c(cc(NCCCCN2CCCCC2)c2ccccc12)C3 [Tx-112]
MIC, P. aeruginosa (P. aeruginosa): No activity | MIC, VRSA (ATCC 700699) [3]: 8 µg/mL (≈ 19 µM) | MIC, VRSA (ATCC 700788) [3]: 8 µg/mL (≈ 19 µM) | MIC, Fusarium (Fusarium): 3.3 µg/mL (≈ 7.85 µM) | MIC, Aspergillus fumigatus (Aspergillus fumigatus): 6.5 µg/mL (≈ 15.5 µM) | MIC, VRE enterococcus (E. faecalis) [6]: 210 µg/mL (≈ 499 µM)

CN1CCN(C(=O)CCC(=O)Nc2cc3c(c4ccccc24)-c2ccc4ccccc4c2C3)CC1 [Tx-37, N-[11′-(13′H-Dibenzo[a,g]-fluorenyl)]-4-(4′N methyl-piperazinyl)-butane-1,4-dicarboxiamide]
MIC, MRSA (methicillin resistant) [1]: 1.8 to 7 µg/mL | MIC ([1]; plate A1, MRSA patient isolate): 7.2 µg/mL (≈ 15.5 µM) | MIC ([1]; plate B2, MRSA patient isolate): 3.6 µg/mL (≈ 7.77 µM) | MIC ([1]; plate E5, MRSA patient isolate): 3.6 µg/mL (≈ 7.77 µM) | MIC ([1]; plate F6, MRSA patient isolate): 1.8 µg/mL (≈ 3.88 µM) | MIC ([1]; plate G7, MRSA patient isolate): 3.6 µg/mL (≈ 7.77 µM) | MIC ([1]; plate H9, MRSA patient isolate): 7.2 µg/mL (≈ 15.5 µM) | MIC [1, 7]: 7.2 µg/mL (≈ 15.5 µM) | MIC (Enterococcus faecium; [8]): +++ | MIC (Enterococcus faecium; [9]): +++ | MIC (Enterococcus faecium; [10]): +++ | MIC, P. aeruginosa (P. aeruginosa): No activity | MIC (P. aeruginosa; [11]): +++ | MIC (P. aeruginosa; [12]): +++ | MIC (P. aeruginosa; [13]): +++ | MIC (E. coli ATCC 25922): +++ | animal studies (ip), mortality (BDF1′ mice; 30 mg/kg ip): 30 mg/kg (no mortality) | MIC (S. aureus; [16]): +++ | MIC (S. aureus; [17]): +++ | MIC, Stenotrophomonas maltophilia [5]: No activity | MIC [5, 18]: +++ | MIC [5, 19]: +++ | MIC [5, 20]: +++ | Toxicity/human fibroblasts (IC50) (human fibroblasts): 5 µg/mL | MIC, VRE enterococcus (E. faecalis) [6]: 58 µg/mL (≈ 125 µM) | MIC [6]: 58 µg/mL (≈ 125 µM)
